ChEMBL document CHEMBL3124838, “Discovery of 6-aryl-azabenzimidazoles that inhibit the TBK1/IKK-ε kinases” (Bioorg Med Chem Lett, 2014)

Legend:
[1] = target: Epidermal growth factor receptor (Homo sapiens) (UniProt P00533); experiment: Inhibition of human EGFR assessed as residual activity at 1 uM relative to control
[2] = target: Glycogen synthase kinase-3 beta (Homo sapiens) (UniProt P49841); experiment: Inhibition of human GSK3beta assessed as residual activity at 1 uM relative to control
[3] = target: Rho-associated protein kinase 2 (Homo sapiens) (UniProt O75116); experiment: Inhibition of human ROCK-2 assessed as residual activity at 1 uM relative to control
Chain of Rho-associated protein kinase 2 (Homo sapiens) (O75116 whole entry, looked up): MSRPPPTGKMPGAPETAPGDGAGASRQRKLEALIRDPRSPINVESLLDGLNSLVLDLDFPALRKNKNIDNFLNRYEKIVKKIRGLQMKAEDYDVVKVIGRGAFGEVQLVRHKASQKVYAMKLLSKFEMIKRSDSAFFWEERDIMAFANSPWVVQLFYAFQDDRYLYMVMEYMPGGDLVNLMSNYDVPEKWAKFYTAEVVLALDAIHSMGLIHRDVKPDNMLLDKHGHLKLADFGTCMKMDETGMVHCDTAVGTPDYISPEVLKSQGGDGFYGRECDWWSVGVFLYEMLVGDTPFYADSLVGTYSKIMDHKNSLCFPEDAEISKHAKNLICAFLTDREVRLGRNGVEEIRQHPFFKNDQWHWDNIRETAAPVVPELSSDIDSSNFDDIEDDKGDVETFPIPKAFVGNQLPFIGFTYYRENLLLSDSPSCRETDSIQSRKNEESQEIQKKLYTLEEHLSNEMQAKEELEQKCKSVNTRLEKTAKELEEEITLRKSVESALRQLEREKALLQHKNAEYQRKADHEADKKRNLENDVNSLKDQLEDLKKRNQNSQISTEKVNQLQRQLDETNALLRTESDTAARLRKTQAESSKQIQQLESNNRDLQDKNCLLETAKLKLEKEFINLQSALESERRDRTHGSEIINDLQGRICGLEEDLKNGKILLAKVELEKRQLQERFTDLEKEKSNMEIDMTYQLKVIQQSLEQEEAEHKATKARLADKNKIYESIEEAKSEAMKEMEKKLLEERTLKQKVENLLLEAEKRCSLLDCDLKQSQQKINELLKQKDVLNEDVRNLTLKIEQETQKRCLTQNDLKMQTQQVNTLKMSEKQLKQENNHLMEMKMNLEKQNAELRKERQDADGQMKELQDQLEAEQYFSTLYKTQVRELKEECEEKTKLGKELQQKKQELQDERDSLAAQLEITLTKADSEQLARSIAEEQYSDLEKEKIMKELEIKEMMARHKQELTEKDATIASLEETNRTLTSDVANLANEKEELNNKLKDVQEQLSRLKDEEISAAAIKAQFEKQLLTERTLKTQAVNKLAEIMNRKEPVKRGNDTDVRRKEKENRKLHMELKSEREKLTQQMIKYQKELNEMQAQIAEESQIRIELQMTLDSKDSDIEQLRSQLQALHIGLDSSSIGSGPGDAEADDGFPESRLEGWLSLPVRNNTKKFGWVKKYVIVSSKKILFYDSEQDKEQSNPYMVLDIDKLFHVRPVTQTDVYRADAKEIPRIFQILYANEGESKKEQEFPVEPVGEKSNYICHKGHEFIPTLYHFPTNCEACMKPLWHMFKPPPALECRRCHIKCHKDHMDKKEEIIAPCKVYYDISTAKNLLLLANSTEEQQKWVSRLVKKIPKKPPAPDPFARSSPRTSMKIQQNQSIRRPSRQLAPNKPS

[4] = target: Mitogen-activated protein kinase 8 (Homo sapiens) (UniProt P45983); experiment: Inhibition of human JNK1alpha1 assessed as residual activity at 1 uM relative to control
Chain of Mitogen-activated protein kinase 8 (Homo sapiens) (P45983 whole entry): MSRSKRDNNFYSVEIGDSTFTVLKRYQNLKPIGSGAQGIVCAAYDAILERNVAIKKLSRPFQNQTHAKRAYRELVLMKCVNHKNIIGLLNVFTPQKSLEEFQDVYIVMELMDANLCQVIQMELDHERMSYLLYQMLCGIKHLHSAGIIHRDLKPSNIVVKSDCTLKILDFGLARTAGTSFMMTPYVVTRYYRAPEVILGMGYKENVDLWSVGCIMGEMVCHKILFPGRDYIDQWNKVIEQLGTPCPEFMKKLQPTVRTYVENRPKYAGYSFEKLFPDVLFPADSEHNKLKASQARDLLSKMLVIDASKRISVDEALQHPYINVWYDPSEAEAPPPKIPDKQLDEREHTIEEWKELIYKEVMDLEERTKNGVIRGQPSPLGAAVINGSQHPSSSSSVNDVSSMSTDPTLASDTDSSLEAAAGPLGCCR

[5] = target: 5'-AMP-activated protein kinase catalytic subunit alpha-2 (Homo sapiens) (UniProt P54646); experiment: Inhibition of human AMPKalpha2 assessed as residual activity at 1 uM relative to control
Chain of 5'-AMP-activated protein kinase catalytic subunit alpha-2 (Homo sapiens) (P54646 whole entry, looked up): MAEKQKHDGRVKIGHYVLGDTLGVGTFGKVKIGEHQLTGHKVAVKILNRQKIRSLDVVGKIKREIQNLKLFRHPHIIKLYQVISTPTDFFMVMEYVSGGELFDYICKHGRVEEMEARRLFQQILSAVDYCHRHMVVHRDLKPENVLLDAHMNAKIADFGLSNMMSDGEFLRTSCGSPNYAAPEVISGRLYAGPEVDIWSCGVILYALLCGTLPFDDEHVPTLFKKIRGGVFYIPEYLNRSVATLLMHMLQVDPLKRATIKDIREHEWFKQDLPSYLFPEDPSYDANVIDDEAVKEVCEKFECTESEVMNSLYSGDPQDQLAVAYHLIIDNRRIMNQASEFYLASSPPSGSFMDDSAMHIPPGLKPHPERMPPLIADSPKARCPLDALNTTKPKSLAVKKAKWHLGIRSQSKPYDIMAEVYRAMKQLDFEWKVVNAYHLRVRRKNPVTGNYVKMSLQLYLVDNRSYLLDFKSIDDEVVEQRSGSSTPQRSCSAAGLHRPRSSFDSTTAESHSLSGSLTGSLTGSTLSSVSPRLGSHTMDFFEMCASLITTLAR

[6] = target: Tyrosine-protein kinase Blk (Homo sapiens) (UniProt P51451); experiment: Inhibition of human BLK assessed as residual activity at 1 uM relative to control
Chain of Tyrosine-protein kinase Blk (Homo sapiens) (P51451 2-505 limits assumed): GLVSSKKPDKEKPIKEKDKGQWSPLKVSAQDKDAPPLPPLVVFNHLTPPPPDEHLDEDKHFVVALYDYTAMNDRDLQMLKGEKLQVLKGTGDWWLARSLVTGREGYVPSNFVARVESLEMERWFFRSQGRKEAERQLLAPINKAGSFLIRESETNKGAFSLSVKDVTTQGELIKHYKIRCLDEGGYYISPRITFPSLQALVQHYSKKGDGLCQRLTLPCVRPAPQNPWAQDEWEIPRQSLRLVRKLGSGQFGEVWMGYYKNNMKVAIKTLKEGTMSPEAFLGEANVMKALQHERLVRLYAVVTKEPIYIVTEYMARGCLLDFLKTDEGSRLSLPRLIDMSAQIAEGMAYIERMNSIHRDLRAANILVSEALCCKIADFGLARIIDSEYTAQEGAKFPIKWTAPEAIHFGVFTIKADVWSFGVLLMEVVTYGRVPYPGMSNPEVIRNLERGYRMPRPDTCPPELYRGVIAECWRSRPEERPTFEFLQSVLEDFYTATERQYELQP

[7] = target: Myosin light chain kinase, smooth muscle (Homo sapiens) (UniProt Q15746); experiment: Inhibition of human MLCK assessed as residual activity at 1 uM relative to control
[8] = target: Focal adhesion kinase 1 (Homo sapiens) (UniProt Q05397); experiment: Inhibition of human FAK assessed as residual activity at 1 uM relative to control
[9] = target: Ribosomal protein S6 kinase alpha-1 (Homo sapiens) (UniProt Q15418); experiment: Inhibition of human RSK1 assessed as residual activity at 1 uM relative to control
Chain of Ribosomal protein S6 kinase alpha-1 (Homo sapiens) (Q15418 whole entry): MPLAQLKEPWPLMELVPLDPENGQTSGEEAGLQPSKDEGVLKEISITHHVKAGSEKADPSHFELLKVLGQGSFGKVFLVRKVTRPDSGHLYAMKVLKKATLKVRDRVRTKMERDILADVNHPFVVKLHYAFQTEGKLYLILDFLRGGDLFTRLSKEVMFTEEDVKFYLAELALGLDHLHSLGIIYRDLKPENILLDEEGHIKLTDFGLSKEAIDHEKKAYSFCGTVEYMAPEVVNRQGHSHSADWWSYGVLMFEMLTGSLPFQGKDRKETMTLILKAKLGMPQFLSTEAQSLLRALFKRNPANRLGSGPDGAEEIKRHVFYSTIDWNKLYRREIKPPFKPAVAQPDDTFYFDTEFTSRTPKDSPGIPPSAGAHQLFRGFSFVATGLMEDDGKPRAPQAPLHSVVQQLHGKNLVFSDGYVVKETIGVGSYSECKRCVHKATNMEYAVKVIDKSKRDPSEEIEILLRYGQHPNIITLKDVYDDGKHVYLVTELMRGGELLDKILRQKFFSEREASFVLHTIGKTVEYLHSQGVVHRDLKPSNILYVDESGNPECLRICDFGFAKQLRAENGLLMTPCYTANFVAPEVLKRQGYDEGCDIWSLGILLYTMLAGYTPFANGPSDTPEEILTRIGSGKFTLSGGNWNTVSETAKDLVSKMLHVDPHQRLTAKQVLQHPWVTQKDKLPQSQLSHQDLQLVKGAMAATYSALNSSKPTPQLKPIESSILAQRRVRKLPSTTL

[10] = target: Insulin receptor (Homo sapiens) (UniProt P06213); experiment: Inhibition of human activated IR assessed as residual activity at 1 uM relative to control
[11] = test system: Epidermal growth factor receptor (Homo sapiens), P00533 [L858R,T790M]; experiment: Inhibition of human EGFR T790M/L858R double mutant assessed as residual activity at 1 uM relative to control; format: protein assay
[12] = target: Receptor-type tyrosine-protein kinase FLT3 (Homo sapiens) (UniProt P36888); experiment: Inhibition of human FLT3 assessed as residual activity at 1 uM relative to control
[13] = target: T1, Serine/threonine-protein kinase ULK2 (Homo sapiens) (UniProt Q8IYT8); experiment: Inhibition of human ULK2 assessed as residual activity at 1 uM relative to control
T1 sequence (whole entry): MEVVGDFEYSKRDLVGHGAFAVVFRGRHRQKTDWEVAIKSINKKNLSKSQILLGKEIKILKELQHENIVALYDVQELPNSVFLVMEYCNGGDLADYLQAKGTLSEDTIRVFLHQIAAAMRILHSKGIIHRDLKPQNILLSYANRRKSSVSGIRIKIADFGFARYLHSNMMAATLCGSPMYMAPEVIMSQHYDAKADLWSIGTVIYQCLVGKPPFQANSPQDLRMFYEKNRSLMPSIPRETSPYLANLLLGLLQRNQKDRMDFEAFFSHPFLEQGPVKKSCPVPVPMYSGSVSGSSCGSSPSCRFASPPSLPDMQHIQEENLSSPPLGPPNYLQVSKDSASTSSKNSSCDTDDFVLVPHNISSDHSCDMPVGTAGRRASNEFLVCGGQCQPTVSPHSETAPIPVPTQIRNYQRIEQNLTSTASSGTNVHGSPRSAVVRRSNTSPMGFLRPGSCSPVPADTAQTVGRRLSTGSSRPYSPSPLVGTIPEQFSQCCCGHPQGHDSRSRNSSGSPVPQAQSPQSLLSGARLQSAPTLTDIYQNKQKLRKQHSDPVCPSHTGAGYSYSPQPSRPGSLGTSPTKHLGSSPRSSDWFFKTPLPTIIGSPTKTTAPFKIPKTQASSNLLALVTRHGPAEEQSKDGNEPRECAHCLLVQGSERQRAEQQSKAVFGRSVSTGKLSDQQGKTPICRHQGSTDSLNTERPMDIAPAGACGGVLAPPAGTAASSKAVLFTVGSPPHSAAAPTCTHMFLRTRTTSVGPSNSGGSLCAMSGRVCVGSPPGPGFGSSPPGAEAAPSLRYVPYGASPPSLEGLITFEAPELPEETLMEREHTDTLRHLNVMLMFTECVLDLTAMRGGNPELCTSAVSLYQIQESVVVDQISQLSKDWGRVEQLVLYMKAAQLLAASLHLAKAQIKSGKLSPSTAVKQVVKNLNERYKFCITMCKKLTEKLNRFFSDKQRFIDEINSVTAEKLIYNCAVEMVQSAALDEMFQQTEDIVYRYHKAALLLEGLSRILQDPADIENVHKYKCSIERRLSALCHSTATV

[14] = target: Aurora kinase B (Homo sapiens, UniProt Q96GD4); experiment: Inhibition of human Aurora-B assessed as residual activity at 1 uM relative to control
Chain of Aurora kinase B (Q96GD4 whole entry): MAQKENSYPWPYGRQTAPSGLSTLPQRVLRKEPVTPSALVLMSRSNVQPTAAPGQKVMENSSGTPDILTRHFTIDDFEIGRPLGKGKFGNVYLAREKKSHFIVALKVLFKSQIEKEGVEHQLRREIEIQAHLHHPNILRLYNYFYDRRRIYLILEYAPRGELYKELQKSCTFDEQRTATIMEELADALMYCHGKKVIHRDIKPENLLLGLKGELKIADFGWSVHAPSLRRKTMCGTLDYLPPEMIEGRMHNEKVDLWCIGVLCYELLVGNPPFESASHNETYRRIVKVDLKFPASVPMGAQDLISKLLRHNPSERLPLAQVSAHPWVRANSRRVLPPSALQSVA

[15] = test system: Fibroblast growth factor receptor 1 (Homo sapiens), P11362 [V561M]; experiment: Inhibition of human FGFR1 V561M mutant assessed as residual activity at 1 uM relative to control
[16] = target: T2, Phosphatidylinositol 5-phosphate 4-kinase type-2 alpha (Homo sapiens) (UniProt P48426); experiment: Inhibition of human PIP4K2alpha assessed as residual activity at 1 uM relative to control
T2 sequence (whole entry): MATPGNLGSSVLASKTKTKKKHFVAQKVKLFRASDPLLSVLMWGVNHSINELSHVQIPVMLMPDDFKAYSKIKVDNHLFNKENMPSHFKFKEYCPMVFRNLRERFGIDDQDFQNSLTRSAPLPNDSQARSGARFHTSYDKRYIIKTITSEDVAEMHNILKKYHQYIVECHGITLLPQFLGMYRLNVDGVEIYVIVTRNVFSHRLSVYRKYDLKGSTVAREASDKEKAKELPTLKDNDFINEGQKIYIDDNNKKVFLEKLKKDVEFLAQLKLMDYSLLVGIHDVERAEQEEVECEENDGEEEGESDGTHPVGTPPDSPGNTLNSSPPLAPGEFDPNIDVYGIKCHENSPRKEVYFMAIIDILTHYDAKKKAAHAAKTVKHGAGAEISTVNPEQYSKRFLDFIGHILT

[17] = target: Tyrosine-protein kinase Lck (Homo sapiens) (UniProt P06239); experiment: Inhibition of human activated LCK assessed as residual activity at 1 uM relative to control
Chain of Tyrosine-protein kinase Lck (Homo sapiens) (P06239 2-509 limits assumed): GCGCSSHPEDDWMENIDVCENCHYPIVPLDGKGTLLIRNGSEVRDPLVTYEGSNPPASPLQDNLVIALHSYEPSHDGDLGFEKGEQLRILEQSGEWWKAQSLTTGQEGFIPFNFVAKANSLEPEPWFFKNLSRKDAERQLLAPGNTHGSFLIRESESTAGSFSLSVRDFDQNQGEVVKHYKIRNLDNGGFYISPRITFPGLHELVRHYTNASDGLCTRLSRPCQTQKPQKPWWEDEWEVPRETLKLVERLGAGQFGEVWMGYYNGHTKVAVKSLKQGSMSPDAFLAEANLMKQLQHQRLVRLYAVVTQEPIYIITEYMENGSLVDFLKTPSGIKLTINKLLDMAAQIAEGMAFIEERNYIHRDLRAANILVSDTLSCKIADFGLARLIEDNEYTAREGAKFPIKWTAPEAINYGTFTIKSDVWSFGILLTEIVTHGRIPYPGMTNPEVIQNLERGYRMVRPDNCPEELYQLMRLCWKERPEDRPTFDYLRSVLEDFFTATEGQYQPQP

[18] = target: Ephrin type-A receptor 5 (Homo sapiens) (UniProt P54756); experiment: Inhibition of human EPHA5 assessed as residual activity at 1 uM relative to control

Chain of Glycogen synthase kinase-3 beta (Homo sapiens) (P49841 whole entry, looked up): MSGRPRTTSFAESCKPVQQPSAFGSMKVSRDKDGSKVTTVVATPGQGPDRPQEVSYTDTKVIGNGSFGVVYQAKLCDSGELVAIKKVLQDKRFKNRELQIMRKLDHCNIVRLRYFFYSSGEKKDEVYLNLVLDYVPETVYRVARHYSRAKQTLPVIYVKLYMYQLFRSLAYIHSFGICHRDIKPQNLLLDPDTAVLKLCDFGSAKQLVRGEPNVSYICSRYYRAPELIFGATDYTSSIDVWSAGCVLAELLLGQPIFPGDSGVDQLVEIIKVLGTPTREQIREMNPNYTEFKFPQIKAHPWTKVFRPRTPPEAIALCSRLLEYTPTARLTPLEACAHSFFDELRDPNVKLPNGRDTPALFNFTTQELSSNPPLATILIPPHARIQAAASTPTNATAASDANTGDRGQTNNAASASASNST

Activity [1] [%]	Activity [2] [%]	Activity [3] [%]	Activity [4] [%]	Activity [5] [%]	Activity [6] [%]	Activity [7] [%]	Activity [8] [%]	Activity [9] [%]	Activity [10] [%]	Activity [11] [%]	Activity [12] [%]	Activity [13] [%]	Activity [14] [%]	Activity [15] [%]	Activity [16] [%]	Activity [17] [%]	Activity [18] [%]	Compound
102	102	108	117	28	25	100	91	63	109	90	6	42	43	85	85	56	72	COc1ccc(-c2nc3cc(-c4csc(C(=O)NCC(C)C)c4)cnc3[nH]2)cc1
89	83	102	98	42	13	106	90	76	100	76	18	40	78	90	95	47	76	COc1ccc(-c2nc3cc(-c4csc(C(=O)NCCC(C)C)c4)cnc3[nH]2)cc1
97	106	108	98	46	48	95	80	73	96	94	30	53	75	104	87	71	77	COc1ccc(-c2nc3cc(-c4csc(C(=O)NCC(C)(C)C)c4)cnc3[nH]2)cc1
